Test results taken from BindingDB's records for doi:10.1016/j.bioorg.2014.11.005 (Charles University In Prague, 2015).

Columns and labels:
[1] = target: Carboxylic ester hydrolase (Equus caballus, UniProt Q9N1N9); assay: Ellman's Method
Acetylcholinesterase = Acetylcholinesterase (Electrophorus electricus, UniProt O42275); assay: Ellman's Method
Sequence of Acetylcholinesterase (O42275 whole entry): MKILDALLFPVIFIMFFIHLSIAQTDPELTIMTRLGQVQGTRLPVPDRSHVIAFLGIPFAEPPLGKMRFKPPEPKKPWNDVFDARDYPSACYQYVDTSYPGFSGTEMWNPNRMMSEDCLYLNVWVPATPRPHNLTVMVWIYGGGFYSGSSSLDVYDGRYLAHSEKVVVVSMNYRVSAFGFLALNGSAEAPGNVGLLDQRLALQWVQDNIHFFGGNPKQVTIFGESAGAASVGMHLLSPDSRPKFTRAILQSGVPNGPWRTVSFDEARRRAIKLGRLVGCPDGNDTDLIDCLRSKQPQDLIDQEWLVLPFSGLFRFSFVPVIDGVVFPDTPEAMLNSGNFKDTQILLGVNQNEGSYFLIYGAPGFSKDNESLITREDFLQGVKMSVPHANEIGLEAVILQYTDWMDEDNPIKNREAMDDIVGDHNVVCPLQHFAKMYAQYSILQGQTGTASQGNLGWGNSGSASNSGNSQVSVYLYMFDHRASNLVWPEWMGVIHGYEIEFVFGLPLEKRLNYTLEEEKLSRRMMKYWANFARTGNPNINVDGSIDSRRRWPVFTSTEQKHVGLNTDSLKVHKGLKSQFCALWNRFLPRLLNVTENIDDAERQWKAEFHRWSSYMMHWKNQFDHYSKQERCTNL

Sequence of Carboxylic ester hydrolase (Q9N1N9 whole entry): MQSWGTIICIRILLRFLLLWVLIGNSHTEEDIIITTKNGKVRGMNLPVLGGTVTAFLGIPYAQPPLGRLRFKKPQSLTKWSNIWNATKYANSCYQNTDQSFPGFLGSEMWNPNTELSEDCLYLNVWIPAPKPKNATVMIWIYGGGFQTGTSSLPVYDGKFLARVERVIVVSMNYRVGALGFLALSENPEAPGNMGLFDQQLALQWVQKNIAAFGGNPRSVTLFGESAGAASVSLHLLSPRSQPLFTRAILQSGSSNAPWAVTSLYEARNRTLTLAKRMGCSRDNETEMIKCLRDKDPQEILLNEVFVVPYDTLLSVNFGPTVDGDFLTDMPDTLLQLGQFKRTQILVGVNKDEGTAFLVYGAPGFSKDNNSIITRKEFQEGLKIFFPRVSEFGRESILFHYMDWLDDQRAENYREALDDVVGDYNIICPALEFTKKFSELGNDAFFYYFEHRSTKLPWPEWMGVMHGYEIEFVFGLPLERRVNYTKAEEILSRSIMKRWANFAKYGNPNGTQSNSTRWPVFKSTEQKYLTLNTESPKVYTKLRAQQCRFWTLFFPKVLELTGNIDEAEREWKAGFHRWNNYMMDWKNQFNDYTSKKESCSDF

Row | Structure (SMILES) | IC50 [1] | IC50 (Acetylcholinesterase)
1 | CCOP(=O)(OCC)Oc1cc(Cl)ccc1C(=O)Nc1cccc(Br)c1 [2-[(3-bromophenyl)carbamoyl]-5-chlorophenyl diethyl phosphate (20)] | 1.77 µM | 35.4 µM
2 | CCOP(=O)(OCC)Oc1cc(Cl)ccc1C(=O)Nc1ccc(Br)cc1 [2-[(4-bromophenyl)carbamoyl]-5-chlorophenyl diethyl phosphate (23)] | 8.76 µM | 55.1 µM
3 | CCOP(=O)(OCC)Oc1ccc(Cl)cc1C(=O)Nc1cccc(Br)c1 [2‐[(3‐bromophenyl)carbamoyl]‐4‐chlorophenyl  diethyl phosphate (16)] | 16.9 µM | 63.3 µM
4 | CCOP(=O)(OCC)Oc1ccc(Cl)cc1C(=O)Nc1ccc(Br)cc1 [2‐[(4‐bromophenyl)carbamoyl]‐4‐chlorophenyl  diethyl phosphate (14)] | 40.2 µM | 59.2 µM
5 | CCOP(=O)(OCC)Oc1ccc(Br)cc1C(=O)Nc1ccc(Cl)c(Cl)c1 [4‐bromo‐2‐[(3,4‐dichlorophenyl)carbamoyl]phenyl  diethyl phosphate (4)] | 49.6 µM | 55.2 µM
6 | CCOP(=O)(OCC)Oc1ccc(Br)cc1C(=O)Nc1cccc(Br)c1 [4‐bromo‐2‐[(3‐bromophenyl)carbamoyl]phenyl diethyl  phosphate (7)] | 18 µM | 70.3 µM
7 | CCOP(=O)(OCC)Oc1ccc(Br)cc1C(=O)Nc1cccc(Cl)c1 [4‐bromo‐2‐[(3‐chlorophenyl)carbamoyl]phenyl  diethyl phosphate (2)] | 24.4 µM | 79.9 µM
8 | CCOP(=O)(OCC)Oc1ccc(Br)cc1C(=O)Nc1cccc(F)c1 [4‐bromo‐2‐[(3‐fluorophenyl)carbamoyl]phenyl  diethyl phosphate (1)] | 68.3 µM | 69.8 µM
9 | CCOP(=O)(OCC)Oc1ccc(Br)cc1C(=O)Nc1ccc(Br)cc1 [4‐bromo‐2‐[(4‐bromophenyl)carbamoyl]phenyl diethyl  phosphate (8)] | 13 µM | 50.8 µM
10 | CCOP(=O)(OCC)Oc1ccc(Br)cc1C(=O)Nc1ccc(Cl)cc1 [4‐bromo‐2‐[(4‐chlorophenyl)carbamoyl]phenyl  diethyl phosphate (3)] | 19.9 µM | 45.5 µM
11 | CCOP(=O)(OCC)Oc1ccc(Br)cc1C(=O)Nc1ccc(F)cc1 [4‐bromo‐2‐[(4‐fluorophenyl)carbamoyl]phenyl  diethyl phosphate (9)] | 22.7 µM | 53.7 µM
12 | CCOP(=O)(OCC)Oc1ccc(Br)cc1C(=O)Nc1cccc(C(F)(F)F)c1 [4‐bromo‐2‐{[3‐ (trifluoromethyl)phenyl]carbamoyl}phenyl diethyl  phosphate (5)] | 14.3 µM | 46.1 µM
13 | CCOP(=O)(OCC)Oc1ccc(Br)cc1C(=O)Nc1ccc(C(F)(F)F)cc1 [4‐bromo‐2‐{[4‐ (trifluoromethyl)phenyl]carbamoyl}phenyl diethyl  phosphate (6)] | 10.3 µM | 56.7 µM
14 | CCOP(=O)(OCC)Oc1ccc(Cl)cc1C(=O)Nc1ccc(Cl)c(Cl)c1 [4‐chloro‐2‐[(3,4‐dichlorophenyl)carbamoyl]phenyl  diethyl phosphate (15)] | 40.3 µM | 80.9 µM
15 | CCOP(=O)(OCC)Oc1ccc(Cl)cc1C(=O)Nc1cccc(Cl)c1 [4‐chloro‐2‐[(3‐chlorophenyl)carbamoyl]phenyl  diethyl phosphate (10)] | 28.1 µM | 64.3 µM
16 | CCOP(=O)(OCC)Oc1ccc(Cl)cc1C(=O)Nc1cccc(F)c1 [4‐chloro‐2‐[(3‐fluorophenyl)carbamoyl]phenyl  diethyl phosphate (12)] | 31.6 µM | 61.1 µM
17 | CCOP(=O)(OCC)Oc1ccc(Cl)cc1C(=O)Nc1ccc(Cl)cc1 [4‐chloro‐2‐[(4‐chlorophenyl)carbamoyl]phenyl  diethyl phosphate (11)] | 42.1 µM | 60.9 µM
18 | CCOP(=O)(OCC)Oc1ccc(Cl)cc1C(=O)Nc1ccc(F)cc1 [4‐chloro‐2‐[(4‐fluorophenyl)carbamoyl]phenyl  diethyl phosphate (13)] | 20.5 µM | 48.5 µM
19 | CCOP(=O)(OCC)Oc1ccc(Cl)cc1C(=O)Nc1cccc(C(F)(F)F)c1 [4‐chloro‐2‐{[3‐ (trifluoromethyl)phenyl]carbamoyl}phenyl diethyl  phosphate (17)] | 24.8 µM | 51.5 µM
20 | CCOP(=O)(OCC)Oc1ccc(Cl)cc1C(=O)Nc1ccc(C(F)(F)F)cc1 [4‐chloro‐2‐{[4‐ (trifluoromethyl)phenyl]carbamoyl}phenyl diethyl  phosphate (18)] | 20.9 µM | 41.6 µM
21 | CCOP(=O)(OCC)Oc1cc(Cl)ccc1C(=O)Nc1ccc(Cl)c(Cl)c1 [5-chloro-2-[(3,4-dichlorophenyl)carbamoyl]phenyl diethyl phosphate (25)] | 0.903 µM | 45.5 µM
22 | CCOP(=O)(OCC)Oc1cc(Cl)ccc1C(=O)Nc1cccc(Cl)c1 [5-chloro-2-[(3-chlorophenyl)carbamoyl]phenyl diethyl phosphate (19)] | 3.68 µM | 41.1 µM
23 | CCOP(=O)(OCC)Oc1cc(Cl)ccc1C(=O)Nc1cccc(F)c1 [5-chloro-2-[(3-fluorophenyl)carbamoyl]phenyl diethyl phosphate (21)] | 11.5 µM | 60.2 µM
24 | CCOP(=O)(OCC)Oc1cc(Cl)ccc1C(=O)Nc1ccc(Cl)cc1 [5-chloro-2-[(4-chlorophenyl)carbamoyl]phenyl diethyl phosphate (24)] | 5.01 µM | 60.9 µM
25 | CCOP(=O)(OCC)Oc1cc(Cl)ccc1C(=O)Nc1ccc(F)cc1 [5-chloro-2-[(4-fluorophenyl)carbamoyl]phenyl diethyl phosphate (22)] | 4.43 µM | 80.8 µM
26 | CCOP(=O)(OCC)Oc1cc(Cl)ccc1C(=O)Nc1cccc(C(F)(F)F)c1 [5-chloro-2-{[3-(trifluoromethyl)phenyl]carbamoyl}phenyl diethyl phosphate (26)] | 3.53 µM | 71.9 µM
27 | CCOP(=O)(OCC)Oc1cc(Cl)ccc1C(=O)Nc1ccc(C(F)(F)F)cc1 [5-chloro-2-{[4-(trifluoromethyl)phenyl]carbamoyl}phenyl diethyl phosphate (27)] | 9.84 µM | 86.3 µM
